Format in all cases: cell-based
In one assay the target is T1, human TLR9 (Homo sapiens, UniProt Q9NR96).
T1 construct: host or cells: HEK-Blue cells (HEK293-derived reporter line)
T1 sequence (Q9NR96 26-1032): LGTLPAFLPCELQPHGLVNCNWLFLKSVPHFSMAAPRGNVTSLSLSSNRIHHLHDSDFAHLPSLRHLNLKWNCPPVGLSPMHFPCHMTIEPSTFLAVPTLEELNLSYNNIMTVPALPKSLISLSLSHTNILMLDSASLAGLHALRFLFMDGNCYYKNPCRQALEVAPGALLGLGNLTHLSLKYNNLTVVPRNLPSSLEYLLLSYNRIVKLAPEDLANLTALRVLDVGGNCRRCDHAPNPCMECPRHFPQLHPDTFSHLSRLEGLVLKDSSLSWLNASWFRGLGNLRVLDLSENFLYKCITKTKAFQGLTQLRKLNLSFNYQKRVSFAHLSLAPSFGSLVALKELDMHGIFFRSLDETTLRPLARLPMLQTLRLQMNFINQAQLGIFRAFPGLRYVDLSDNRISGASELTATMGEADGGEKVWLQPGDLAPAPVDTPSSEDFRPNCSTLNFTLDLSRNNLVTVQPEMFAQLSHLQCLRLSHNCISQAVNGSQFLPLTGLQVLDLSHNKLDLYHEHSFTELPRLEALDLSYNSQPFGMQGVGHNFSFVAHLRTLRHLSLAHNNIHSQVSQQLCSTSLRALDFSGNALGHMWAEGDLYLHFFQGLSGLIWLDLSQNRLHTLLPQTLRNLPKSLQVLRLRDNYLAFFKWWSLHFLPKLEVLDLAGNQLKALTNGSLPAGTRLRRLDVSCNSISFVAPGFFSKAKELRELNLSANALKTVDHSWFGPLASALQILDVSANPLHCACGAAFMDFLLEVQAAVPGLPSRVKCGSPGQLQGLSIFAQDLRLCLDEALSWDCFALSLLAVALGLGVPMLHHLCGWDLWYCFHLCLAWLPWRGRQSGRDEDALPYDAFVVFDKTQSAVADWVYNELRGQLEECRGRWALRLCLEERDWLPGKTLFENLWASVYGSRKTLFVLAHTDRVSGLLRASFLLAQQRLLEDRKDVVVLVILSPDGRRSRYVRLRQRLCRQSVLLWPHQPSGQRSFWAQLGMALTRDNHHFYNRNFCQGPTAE
In words: TLR7/8/9 Inhibition Reporter Assays (TLR9). The note with it: HEK-Blue cells overexpressing human TLR9, SEAP reporter, stimulated with TLR9 ligand ODN2006. On the procedure:
(§1) HEK-Blue™-cells (Invivogen) overexpressing human TLR7, TLR8 or TLR9 receptors were used for screening inhibitors of these receptors using an inducible SEAP (secreted embryonic alkaline phosphatase) reporter gene under the control of the IFN-β minimal promoter fused to five NF-κB and AP-1-binding sites. Cells are seeded into Greiner 384 well plates (15000 cells per well) that are predispensed (by ECHO) with testing compounds in DMSO to yield a final dose response concentration range of 0.85 nM-[…]. After a 60 minute compound pre-treatment in 37° C. incubator, the cells are then stimulated with a TLR7 ligand (gardiquimod at a final concentration of […]), TLR8 ligand (R848 at a final concentration of […]) or TLR9 ligand (ODN2006 at a final concentration of 200 nM) to activate NF-κB and AP-1 which induce the production of SEAP. After a 22 hour incubation at 37° C., 5% CO2, SEAP levels are determined with the addition of HEK-Blue™ Detection reagent (Invivogen), a cell culture medium that allows for detection of SEAP, according to manufacturer's specifications. The percent inhibition is determined as the % reduction in the HEK-Blue signal present in wells treated with agonist plus DMSO alone compared to wells treated with a known inhibitor.
For orientation: In a reporter assay the amount or activity of a reporter protein is the signal.

The target of a further assay is T2, human TLR7 (Homo sapiens, UniProt Q9NYK1).
T2 construct: host or cells: HEK-Blue cells (HEK293-derived reporter line)
T2 sequence (Q9NYK1 27-1049): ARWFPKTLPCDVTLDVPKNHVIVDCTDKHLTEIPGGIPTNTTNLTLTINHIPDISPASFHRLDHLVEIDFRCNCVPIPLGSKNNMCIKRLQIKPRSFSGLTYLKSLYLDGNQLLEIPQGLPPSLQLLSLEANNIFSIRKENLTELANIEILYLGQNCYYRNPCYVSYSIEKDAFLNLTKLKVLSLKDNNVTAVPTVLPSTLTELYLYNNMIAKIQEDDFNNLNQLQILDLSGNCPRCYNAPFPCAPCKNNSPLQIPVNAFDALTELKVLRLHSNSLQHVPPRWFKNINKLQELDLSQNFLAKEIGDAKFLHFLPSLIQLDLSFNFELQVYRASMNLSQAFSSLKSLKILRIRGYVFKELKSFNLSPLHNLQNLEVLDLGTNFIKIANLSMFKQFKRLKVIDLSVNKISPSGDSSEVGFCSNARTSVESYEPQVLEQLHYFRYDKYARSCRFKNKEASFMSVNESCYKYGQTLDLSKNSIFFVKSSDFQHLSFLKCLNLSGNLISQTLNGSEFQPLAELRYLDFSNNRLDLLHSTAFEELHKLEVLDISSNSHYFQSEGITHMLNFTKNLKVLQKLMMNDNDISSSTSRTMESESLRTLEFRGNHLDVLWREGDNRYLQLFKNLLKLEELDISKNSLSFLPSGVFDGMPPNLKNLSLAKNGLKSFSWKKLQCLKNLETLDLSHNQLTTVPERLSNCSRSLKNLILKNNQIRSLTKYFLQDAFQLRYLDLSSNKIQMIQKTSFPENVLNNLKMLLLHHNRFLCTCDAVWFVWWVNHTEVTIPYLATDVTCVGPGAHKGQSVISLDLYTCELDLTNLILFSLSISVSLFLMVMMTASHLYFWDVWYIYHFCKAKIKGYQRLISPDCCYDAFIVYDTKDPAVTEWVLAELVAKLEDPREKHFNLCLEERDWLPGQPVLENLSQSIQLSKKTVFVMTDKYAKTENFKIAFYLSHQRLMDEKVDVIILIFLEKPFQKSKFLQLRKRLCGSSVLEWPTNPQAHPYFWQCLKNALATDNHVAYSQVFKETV
In words: TLR7/8/9 Inhibition Reporter Assays (TLR7). To be noted: HEK-Blue cells overexpressing human TLR7, SEAP reporter, stimulated with TLR7 ligand gardiquimod. As for the experimental part: as §1

The target in the next assay is T3, human TLR8 (Homo sapiens, UniProt Q9NR97).
T3 construct: host or cells: HEK-Blue cells (HEK293-derived reporter line)
T3 sequence (Q9NR97 27-1041): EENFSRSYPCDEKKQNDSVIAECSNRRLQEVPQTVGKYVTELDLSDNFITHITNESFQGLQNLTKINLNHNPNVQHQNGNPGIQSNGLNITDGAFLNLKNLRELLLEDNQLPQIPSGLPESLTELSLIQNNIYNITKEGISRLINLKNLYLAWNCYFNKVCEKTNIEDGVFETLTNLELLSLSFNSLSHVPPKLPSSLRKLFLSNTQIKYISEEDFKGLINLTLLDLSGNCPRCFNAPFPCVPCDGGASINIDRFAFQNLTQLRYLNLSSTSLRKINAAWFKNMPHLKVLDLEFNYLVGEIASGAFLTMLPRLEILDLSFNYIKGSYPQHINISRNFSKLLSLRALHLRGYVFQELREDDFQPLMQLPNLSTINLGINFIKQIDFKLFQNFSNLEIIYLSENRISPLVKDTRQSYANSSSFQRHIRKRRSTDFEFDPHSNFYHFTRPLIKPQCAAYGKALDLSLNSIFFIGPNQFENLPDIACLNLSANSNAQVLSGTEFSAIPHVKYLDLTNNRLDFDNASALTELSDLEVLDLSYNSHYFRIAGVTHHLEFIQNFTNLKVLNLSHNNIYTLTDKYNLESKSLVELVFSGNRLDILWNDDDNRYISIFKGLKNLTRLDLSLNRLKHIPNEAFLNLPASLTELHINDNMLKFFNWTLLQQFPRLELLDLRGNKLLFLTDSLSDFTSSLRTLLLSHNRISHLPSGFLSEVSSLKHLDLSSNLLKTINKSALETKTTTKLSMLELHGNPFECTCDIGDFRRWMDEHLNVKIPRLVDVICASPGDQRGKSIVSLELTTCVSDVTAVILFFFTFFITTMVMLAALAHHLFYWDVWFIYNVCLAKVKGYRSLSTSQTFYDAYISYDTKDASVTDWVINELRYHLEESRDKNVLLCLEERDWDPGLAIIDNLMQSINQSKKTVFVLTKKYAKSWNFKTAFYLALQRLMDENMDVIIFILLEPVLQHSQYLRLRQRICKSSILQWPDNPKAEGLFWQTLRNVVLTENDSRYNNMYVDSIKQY
In words: TLR7/8/9 Inhibition Reporter Assays (TLR8). The note with it: HEK-Blue cells overexpressing human TLR8, SEAP reporter, stimulated with TLR8 ligand R848. On the procedure:
as §1

Ten molecules from patent US20250163054A1, “SUBSTITUTED BICYCLIC HETEROARYL COMPOUNDS USEFUL AS INHIBITORS OF TLR9” (Bristol-Myers Squibb Company, priority 2022, published 2025) can be followed below.

For `COC1CCN(Cc2ccc(-c3ccc(-c4cc5c(nc(-c6ccc(S(C)(=O)=O)cc6)n5C)c(C)n4)cc3)nc2)CC1` [Example 50, 6-(4-(5-((4-methoxypiperidin-1-yl)methyl)pyridin-2-yl)phenyl)-1,4-dimethyl-2-(4-(methylsulfonyl)phenyl)-1H-imidazo[4,5-c]pyridine], the IC50 against human TLR9 was 0.53 µM; against human TLR7, 1.1 µM; against human TLR8, > 50 µM.
The matching figures for `Cn1c(-c2ccc(S(C)(=O)=O)cc2)nc2c(C(F)(F)F)nc(C3=CCN(C4CCN(CC(C)(C)O)CC4)CC3)cc21` [Example 37, 2-methyl-1-(4-(4-(1-methyl-2-(4-(methylsulfonyl)phenyl)-4-(trifluoromethyl)-1H-imidazo[4,5-c]pyridin-6-yl)-3,6-dihydropyridin-1(2H)-yl)piperidin-1-yl)propan-2-ol]: 1.1 µM, 13 µM and > 50 µM.
The matching figures for `COc1cc(-c2nc3c(C)nc(-c4ccc(N5CCN(CC(C)C)CC5)cc4)cc3n2C)cn2ncnc12` [Example 10, 6-(6-(4-(4-isobutylpiperazin-1-yl)phenyl)-1,4-dimethyl-1H-imidazo[4,5-c]pyridin-2-yl)-8-methoxy-[1,2,4]triazolo[1,5-a]pyridine]: 1.7 µM, 9.6 µM and > 50 µM.
The corresponding values for `COc1ccc(-c2nc3c(C)nc(-c4ccc(N5CC6(C5)CN(C5COC5)C6)cc4)cc3n2C)cc1OC` [Example 102, 2-(3,4-dimethoxyphenyl)-1,4-dimethyl-6-(4-(6-(oxetan-3-yl)-2,6-diazaspiro[3.3]heptan-2-yl)phenyl)-1H-imidazo[4,5-c]pyridine] are 0.32 µM, 9.1 µM and > 50 µM.
As to `Cc1nc(C2CCN(C3CCN(CC(C)C)CC3)CC2)cc2c1nc(-c1ccc(S(C)(=O)=O)cc1)n2C` [Example 39, 6-(1′-isobutyl-[1,4′-bipiperidin]-4-yl)-1,4-dimethyl-2-(4-(methylsulfonyl)phenyl)-1H-imidazo[4,5-c]pyridine], the half-maximal inhibitory concentration (IC50) at human TLR9 was 0.036 µM; against human TLR7 it was 0.92 µM; against human TLR8 it was > 50 µM.
The matching figures for `Cc1nc(-c2ccc(N3C[C@@H]4CN(C5CCC5)C[C@@H]4C3)cc2)cc2c1nc(-c1ccc(S(C)(=O)=O)cc1)n2C` [Example 69, 6-(4-((3aR,6aS)-5-cyclobutylhexahydropyrrolo[3,4-c]pyrrol-2(1H)-yl)phenyl)-1,4-dimethyl-2-(4-(methylsulfonyl)phenyl)-1H-imidazo[4,5-c]pyridine]: 0.037 µM, 2.8 µM and 5.4 µM.
The matching figures for `CC(C)N1C[C@H]2CN(c3ccc(-c4cc5c(cn4)nc(-c4ccc(S(C)(=O)=O)cc4)n5C4CC4)cc3)C[C@H]2C1` [Example 87, 1-cyclopropyl-6-(4-((3aR,6aS)-5-isopropylhexahydropyrrolo[3,4-c]pyrrol-2(1H)-yl)phenyl)-2-(4-(methylsulfonyl)phenyl)-1H-imidazo[4,5-c]pyridine]: 0.29 µM, 1.5 µM and 2 µM.
As to `COc1ccc(-c2nc3c(C)nc(-c4ccc(N5CCC6(CC5)CN(C(C)C)C6)cc4)cc3n2C)cc1OC` [Example 60, 2-(3,4-dimethoxyphenyl)-6-(4-(2-isopropyl-2,7-diazaspiro[3.5]nonan-7-yl)phenyl)-1,4-dimethyl-1H-imidazo[4,5-c]pyridine], the IC50 at human TLR9 worked out at 0.14 µM; at human TLR7 it was 2.3 µM; against human TLR8, 37 µM.
Regarding `Cc1nc(-c2ccc(N3CCC4(CC3)CN(CC(C)C)C4)cc2)cc2c1nc(-c1ccc(S(C)(=O)=O)cc1)n2C` [Example 73, 6-(4-(2-isobutyl-2,7-diazaspiro[3.5]nonan-7-yl)phenyl)-1,4-dimethyl-2-(4-(methylsulfonyl)phenyl)-1H-imidazo[4,5-c]pyridine], the IC50 against human TLR9 was found to be 0.11 µM; at human TLR7, 0.89 µM; against human TLR8 it was 3.9 µM.
Regarding `CC(C)CN1CCC(N2CCC(c3cc4c(cn3)nc(-c3ccc(S(C)(=O)=O)cc3)n4C)CC2)CC1` [Example 31, 6-(1′-isobutyl-[1,4′-bipiperidin]-4-yl)-1-methyl-2-(4-(methylsulfonyl)phenyl)-1H-imidazo[4,5-c]pyridine], the IC50 is 0.24 µM against human TLR9, 4.8 µM against human TLR7 and > 25 µM at human TLR8.

For orientation: IC50 means the concentration that inhibits the measured activity by half. Lower therefore signals greater potency in that assay.
